pKi: −log10 of the molar value.
Biological target: CDK2 (UniProt P24941)
Test: Enzyme Assay
Settings: for inhibition: concentration not given here

Cc1cc(C)cc(NC(=O)c2ccc(Nc3nc(N)c(C(=O)c4c(F)cccc4F)s3)cc2)c1
inhibition: -3%

CSCC[C@@H](CO)NC(=O)c1ccc(Nc2nc(N)c(C(=O)c3c(F)cccc3F)s2)cc1
inhibition: -5%

CC(=O)N(C)C1CCN(C(=O)c2ccc(Nc3nc(N)c(C(=O)c4c(F)cccc4F)s3)cc2)C1 (stereo unspecified)
inhibition: -21%

CCSCCNC(=O)c1ccc(Nc2nc(N)c(C(=O)c3c(F)cccc3F)s2)cc1
inhibition: -6%

Nc1nc(Nc2ccc(C(=O)NCCCO)cc2)sc1C(=O)c1c(F)cccc1F
inhibition: -2%

N#CCCN(Cc1cccnc1)C(=O)c1ccc(Nc2nc(N)c(C(=O)c3c(F)cccc3F)s2)cc1
inhibition: -2%

C=CCN(C)C(=O)c1ccc(Nc2nc(N)c(C(=O)c3c(F)cccc3F)s2)cc1
inhibition: -6%

CCOC(=O)c1ccc(NC(=O)c2ccc(Nc3nc(N)c(C(=O)c4c(F)cccc4F)s3)cc2)cc1
inhibition: 1%

CC(C)C(C)NC(=O)c1ccc(Nc2nc(N)c(C(=O)c3c(F)cccc3F)s2)cc1 (stereo unspecified)
inhibition: -20%

CN(C(=O)c1ccc(Nc2nc(N)c(C(=O)c3c(F)cccc3F)s2)cc1)C1CCCCC1
inhibition: -2%

CCN(CC)CCN1CCN(C(=O)c2ccc(Nc3nc(N)c(C(=O)c4c(F)cccc4F)s3)cc2)CC1
inhibition: -10%

Nc1nc(Nc2ccc(C(=O)N3CCCCC3CCO)cc2)sc1C(=O)c1c(F)cccc1F (stereo unspecified)
inhibition: -24%

Nc1nc(Nc2ccc(C(=O)Nc3ccc4ncsc4c3)cc2)sc1C(=O)c1c(F)cccc1F
inhibition: 13%

CN(C)CCN1CCN(C(=O)c2ccc(Nc3nc(N)c(C(=O)c4c(F)cccc4F)s3)cc2)CC1
inhibition: -17%

CN1CCN(C(=O)c2ccc(Nc3nc(N)c(C(=O)c4c(F)cccc4F)s3)cc2)CC1
inhibition: -9%

CC1CC(NC(=O)c2ccc(Nc3nc(N)c(C(=O)c4c(F)cccc4F)s3)cc2)CC(C)(C)C1 (stereo unspecified)
inhibition: -11%

CCCN(CCC#N)C(=O)c1ccc(Nc2nc(N)c(C(=O)c3c(F)cccc3F)s2)cc1
inhibition: -12%

CN(C)C(=O)CN(C)C(=O)c1ccc(Nc2nc(N)c(C(=O)c3c(F)cccc3F)s2)cc1
inhibition: -23%

NC(=O)c1cccc(NC(=O)c2ccc(Nc3nc(N)c(C(=O)c4c(F)cccc4F)s3)cc2)c1
inhibition: -1%

Cc1cccc(Cl)c1NC(=O)c1ccc(Nc2nc(N)c(C(=O)c3c(F)cccc3F)s2)cc1
inhibition: -12%

CN(Cc1ccncc1)C(=O)c1ccc(Nc2nc(N)c(C(=O)c3c(F)cccc3F)s2)cc1
inhibition: 1%

CC(C)c1cccc(NC(=O)c2ccc(Nc3nc(N)c(C(=O)c4c(F)cccc4F)s3)cc2)c1
inhibition: -12%

Nc1nc(Nc2ccc(C(=O)N(CCCCO)Cc3ccccc3)cc2)sc1C(=O)c1c(F)cccc1F
inhibition: 0%

CN(Cc1ccccc1)C(=O)c1ccc(Nc2nc(N)c(C(=O)c3c(F)cccc3F)s2)cc1
inhibition: -1%

CCOC(=O)/C=C/c1ccc(Nc2nc(N)c(C(=O)c3c(F)cccc3F)s2)cc1
inhibition: -3%

Cc1ccc(O)c(NC(=O)c2ccc(Nc3nc(N)c(C(=O)c4c(F)cccc4F)s3)cc2)c1
inhibition: -6%

Cn1cccc1CNC(=O)c1ccc(Nc2nc(N)c(C(=O)c3c(F)cccc3F)s2)cc1
pKi: 7.70

Cc1ccc(NC(=O)c2ccc(Nc3nc(N)c(C(=O)c4c(F)cccc4F)s3)cc2)c(F)c1
inhibition: -30%

C#CCc1ccc(NC(=O)c2ccc(Nc3nc(N)c(C(=O)c4c(F)cccc4F)s3)cc2)cc1
inhibition: 1%

C[C@H](CN(C)C)N(C)C(=O)c1ccc(Nc2nc(N)c(C(=O)c3c(F)cccc3F)s2)cc1
pKi: 6.95

Nc1nc(Nc2ccc(C(=O)N[C@H](CO)CC3CCCCC3)cc2)sc1C(=O)c1c(F)cccc1F
inhibition: -7%

C#CCCN(C)C(=O)c1ccc(Nc2nc(N)c(C(=O)c3c(F)cccc3F)s2)cc1
inhibition: 0%

COc1ccc(OC)c(CCNC(=O)c2ccc(Nc3nc(N)c(C(=O)c4c(F)cccc4F)s3)cc2)c1
inhibition: -5%

C=C(C)CN(C)C(=O)c1ccc(Nc2nc(N)c(C(=O)c3c(F)cccc3F)s2)cc1
inhibition: -2%

CN(C)CCCCCCNC(=O)c1ccc(Nc2nc(N)c(C(=O)c3c(F)cccc3F)s2)cc1
inhibition: -16%

Nc1nc(Nc2ccc(C(=O)N3CCCC3)cc2)sc1C(=O)c1c(F)cccc1F
inhibition: -15%

Nc1nc(Nc2ccc(C(=O)N3CCN(CCO)CC3)cc2)sc1C(=O)c1c(F)cccc1F
inhibition: -43%

COCC(C)NC(=O)c1ccc(Nc2nc(N)c(C(=O)c3c(F)cccc3F)s2)cc1 (stereo unspecified)
inhibition: -2%

CC1CN(C(=O)c2ccc(Nc3nc(N)c(C(=O)c4c(F)cccc4F)s3)cc2)CC(C)O1 (stereo unspecified)
inhibition: -10%

N#CCc1ccc(CNC(=O)c2ccc(Nc3nc(N)c(C(=O)c4c(F)cccc4F)s3)cc2)cc1
pKi: 7.60

CN(C)CCCN1CCN(C(=O)c2ccc(Nc3nc(N)c(C(=O)c4c(F)cccc4F)s3)cc2)CC1
inhibition: -14%
